Source: patent US20110177179A1, “PREPARATION OF BOTANICAL EXTRACTS CONTAINING ABSORBABLE COMPONENTS USING PHARMACEUTICAL PLATFORM TECHNOLOGY” (SINOVEDA CANADA, INC., priority 2010, published 2011)
Like-named read-outs stand apart in the source and are kept apart here. One block for each compound: values may come before it.

Assays:
[1] = system: MDCK cells; assay: Permeability of extract components through MDCK cell monolayer; format: in vitro ADME; conditions: for permeability versus molecular weight trend: Rhodiola 80% methanol extract
Experimental: Both CaCo-2 and MDCK cells were purchased form American Type Culture Collection (ATCC) and cultured with Dulbecco Modified Eagle's Media (DMEM) supplemented with 10% fetal bovine serum, 1% non-essential amino acids, and 10 mM HEPES. All tissue culture media and supplements were purchased from Sigma-Aldrich. Following Yee's method (Yee 1997), CaCo-2 cells were seeded into transwell culture dishes and cultured for 21 days. Lin et al's. (2003) method was used to seed and culture MDCK cells; the culturing period was three days.
(§1) Two natural products: Rhodiola rosea and Red yeast rice were individually extracted using the three solvents described in Example 1. Each extract was dissolved in Hanks' balanced salt buffer supplemented with 20 mM HEPES at 1 mg/ml. Permeability studies were carried out using MDCK cells and samples were taken from the apical side at 0 minute and 60 minutes and from the basal side at 60 minutes after incubation. Samples were diluted with a 1:1 mixture of methanol and acetonitrile prior to analysis using a LC/MS system. Permeability coefficient number was calculated as follows: Peff (cm/sec)=(Vr/(A*Cs))*(Cf/t), where Vr is the receiver side volume (basal; ml), A is the area of monolayer (cm^2), Cs is the starting concentration at the donor side (μM), Cf is the concentration at the receiver side at time t (μM), and t is the incubation time (seconds).
as §1, with “The extracts of” for “Two natural products: Rhodiola rosea and”, “clover” for “yeast rice”, “individually” for “individually extracted using the three solvents described in Example 1. Each extract was”, “(cm/sec)=(Vr/(A*C,))*(Cf/t),” for “(cm/sec)=(Vr/(A*Cs))*(Cf/t),”

[2] = major component of Chuanxiong; Yan, Ko et al. 2008; cited from earlier work
[3] = system: colonic bacteria; assay: Metabolism by colonic (intestinal) bacteria, anaerobic incubation with fecal sample; format: in vitro ADME, rat; conditions: for metabolism by colonic bacteria (change in level): Red clover methanolic extract, anaerobic, 37° C., up to 24 hours
Experimental: The effect of colonic bacteria on the stability of a methanolic extract of Red clover was evaluated. The procedures reported by Schneider et al. (Schneider, Simmering et al. 2000) was used to prepare a fecal sample collected from a rat. The extract was incubated anaerobically at 37° C. for a period of 24 hours.

[4] = Hollman, van Trijp et al. 1997; cited from earlier work
[5] = Rhodiola rosea extracts, 1 mg/ml, 60 minutes, p<0.05
[6] = after 6 hours of incubation with colonic bacteria

Compound: OC[C@@H]1O[C@@H](OC[C@H]2O[C@@H](OC/C=C/c3ccccc3)[C@H](O)[C@@H](O)[C@@H]2O)[C@H](O)[C@H]1O [rosarin]
permeability versus molecular weight trend ([1]; 1 mg/ml, 60 minutes): deviated significantly from the trend | permeability, 80% methanol extract as opposed to water extract [1, 5]: significantly different

Compound: CCC/C=C1\OC(=O)C2=C1CCC=C2 [z-ligustilide]
bioavailability [2]: less than 3%

species left in the incubate [3]: major species left
Compound: COc1ccc(-c2coc3cc(O)cc(O)c3c2=O)cc1 [biochanin A]

metabolism by colonic bacteria (change in level) [3]: appeared shortly after incubation | species left in the incubate [3, 6]: major species left
Compound: Oc1ccc([C@H]2COc3cc(O)ccc3C2)cc1 [Equol]

Compound: O[C@@H]1[C@@H](O)[C@H](OC/C=C/c2ccccc2)O[C@H](CO[C@@H]2OC[C@H](O)[C@H](O)[C@H]2O)[C@H]1O [rosavin]
permeability versus molecular weight trend ([1]; 1 mg/ml, 60 minutes): deviated significantly from the trend | permeability, 80% methanol extract as opposed to water extract [1, 5]: significantly different

Compound: C[C@@H]1O[C@@H](OC[C@H]2O[C@@H](Oc3c(-c4ccc(O)c(O)c4)oc4cc(O)cc(O)c4c3=O)[C@H](O)[C@@H](O)[C@@H]2O)[C@H](O)[C@H](O)[C@H]1O [Rutin]
detection in the blood stream [4]: not detected

Compound: CC[C@H](C)C(=O)O[C@H]1C[C@@H](C)C=C2C=C[C@H](C)[C@H](CC[C@@H]3C[C@@H](O)CC(=O)O3)[C@H]21 [monacolin K]
permeability, comparison of water, 80% methanol and hexane extracts ([1]; Red yeast rice extracts, 1 mg/ml, 60 minutes): highest in the hexane extract

permeability, 80% methanol extract as opposed to water extract ([1]; MDCK): significantly different
Compound: hydroxyrosavin

metabolism by colonic bacteria (change in level) [3]: increase | species left in the incubate [3, 6]: major species left
Compound: COc1ccc(-c2coc3cc(O)ccc3c2=O)cc1 [formononetin]
